Test results from US20120022116A1, “COMPOSITIONS AND METHODS FOR THE TREATMENT OF PATHOLOGICAL CONDITION(S) RELATED TO GPR35 AND/OR GPR35-HERG COMPLEX” (priority 2010, published 2012).

Columns and labels:
GPR35 [1] = biological target: T1, GPR35 (Homo sapiens, UniProt Q9HC97); assay: Ca2+ mobilization assay (Fluo-4) in HEK-GPR35-Gqo5 cells; assay type: cell-based; details: for Ca2+ moblization (HEK-GPR35-Gqo5): HEK293 cells co-expressing GPR35 and Gqo5, Fluo-4, compounds 10 μM; for Ca2+ mobilization signal in cells co-expressing GPR35 and Gqo5: engineered HEK293, 10 μM
T1 construct: myc; expressed in transfected cells; host or cells: HEK293, transient co-transfection (Lipofectamine LTX)

GPR35 [2] = assay: DMR desensitization / antagonism mode against GPR35 agonist-induced DMR in HT29 cells; assay type: cell-based, human; details: HT29 cells pretreated with compound, then GPR35 agonist
hERG channel [3] = biological target: hERG channel (Homo sapiens, UniProt Q12809); assay: Automated patch clamp recording of hERG tail current (IonWorks); details: hERG tail current ratio post/pre-compound, 50 uM
hERG channel [4] = assay: Cross-desensitization DMR assay against hERG activator mallotoxin-induced DMR in HT29 cells; details: HT29 cells pretreated with compound, then hERG activator mallotoxin

T1 sequence (Q9HC97 whole entry): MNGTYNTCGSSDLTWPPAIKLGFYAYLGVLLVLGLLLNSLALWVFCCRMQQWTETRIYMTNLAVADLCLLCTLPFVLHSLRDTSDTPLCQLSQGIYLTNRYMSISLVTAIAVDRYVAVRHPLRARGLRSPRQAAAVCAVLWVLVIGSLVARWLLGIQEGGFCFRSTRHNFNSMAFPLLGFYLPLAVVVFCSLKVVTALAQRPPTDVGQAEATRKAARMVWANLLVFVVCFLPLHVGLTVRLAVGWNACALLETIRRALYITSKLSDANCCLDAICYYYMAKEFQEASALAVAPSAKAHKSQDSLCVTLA
Chain of hERG channel (Homo sapiens, UniProt Q12809) (Q12809 whole entry): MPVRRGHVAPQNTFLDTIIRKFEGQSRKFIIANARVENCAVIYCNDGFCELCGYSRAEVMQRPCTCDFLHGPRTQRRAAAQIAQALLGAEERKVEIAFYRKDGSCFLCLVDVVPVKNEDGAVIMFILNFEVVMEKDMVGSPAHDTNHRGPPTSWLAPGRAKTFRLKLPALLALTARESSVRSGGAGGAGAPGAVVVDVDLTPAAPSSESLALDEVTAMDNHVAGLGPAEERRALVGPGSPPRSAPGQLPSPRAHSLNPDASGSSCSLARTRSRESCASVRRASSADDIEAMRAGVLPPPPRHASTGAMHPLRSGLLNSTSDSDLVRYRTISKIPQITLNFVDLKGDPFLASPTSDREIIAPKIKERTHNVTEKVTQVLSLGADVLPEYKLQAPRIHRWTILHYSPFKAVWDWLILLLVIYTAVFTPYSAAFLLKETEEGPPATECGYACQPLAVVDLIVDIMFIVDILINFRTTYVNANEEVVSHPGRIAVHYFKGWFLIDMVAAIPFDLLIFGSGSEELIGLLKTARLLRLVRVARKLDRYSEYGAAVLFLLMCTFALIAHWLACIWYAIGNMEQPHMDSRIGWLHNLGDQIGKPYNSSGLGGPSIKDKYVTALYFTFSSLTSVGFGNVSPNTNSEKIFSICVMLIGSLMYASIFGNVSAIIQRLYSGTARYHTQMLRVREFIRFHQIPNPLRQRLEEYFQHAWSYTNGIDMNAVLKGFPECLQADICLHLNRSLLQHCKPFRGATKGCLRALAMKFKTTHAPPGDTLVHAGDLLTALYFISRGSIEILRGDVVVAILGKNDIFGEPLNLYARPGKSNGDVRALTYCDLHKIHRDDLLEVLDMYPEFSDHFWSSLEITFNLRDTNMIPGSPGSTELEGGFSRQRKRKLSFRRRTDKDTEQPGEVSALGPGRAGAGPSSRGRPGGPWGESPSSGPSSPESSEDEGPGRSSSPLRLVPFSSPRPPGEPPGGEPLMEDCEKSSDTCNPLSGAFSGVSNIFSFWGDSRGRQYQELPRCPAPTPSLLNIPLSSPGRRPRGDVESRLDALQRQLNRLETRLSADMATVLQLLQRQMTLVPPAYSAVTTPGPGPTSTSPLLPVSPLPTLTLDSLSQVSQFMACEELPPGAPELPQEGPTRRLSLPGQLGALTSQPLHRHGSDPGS

Row | Structure (SMILES) | Ca2+ moblization (HEK-GPR35-Gqo5) (GPR35 [1]) | Desenstization to GPR35 agonist (GPR35 [2]) | Electrophysiology (HEK-hERG) (hERG channel [3]) | Desenstization to hERG activator (hERG channel [4]) | Ca2+ mobilization signal in cells co-expressing GPR35 and Gqo5 (GPR35 [1])
1 | CCCCCCCCc1c(C(=O)O)sc2c(Br)csc12 [Compound 21, 3-n-octyl-6-bromo-thieno[3,2-b]thiophene-2-carboxylic acid] | active | desenstized | activator |  | 
2 | Cc1csc2c1sc1cc(C(=O)O)sc12 [Compound 22, 5-methyl-dithieno[3,2-b:2′,3′-d]thiophene-2-carboxylic acid] | inactive | desenstized | inactive |  | 
3 | CCOC(=O)c1cc2sc3cc(C(=O)OCC)sc3c2s1 [Compound 23, diethyl dithieno[3,2-b:2′,3′-d]thiophene-2,6-dicarboxylate] | inactive | desenstized | inactive |  | 
4 | OCCN(CCO)c1ccc(C=Cc2cccs2)cc1 [Compound 24, N,N-bis(2-hydroxyethyl)-4-[2-(thiophene-2-yl)vinyl]aniline] | inactive | inactive | inactive |  | 
5 | COC(=O)c1ccc(C=Cc2ccc(N(C)CCO)cc2)s1 [Compound 25, methyl-5-{2-[4-(N-methyl,N-2-hydroxyethyl-amino)phenyl]ethenyl}-thiophene-2-formate] | active | desenstized | inactive |  | 
6 | CN(CCO)c1ccc(C=Cc2ccc(C(=O)[O-])s2)cc1.[Li+] [Compound 26, 5-{2-[4-(N-methyl, N-2-hydroxyethyl-amino)phenyl]ethenyl}-thiophene-2-formate lithium] | active | desenstized | inactive |  | 
7 | OCc1ccc(-c2cccs2)s1 [Compound 27, 2,2′-bithiophene-5-methanol] | inactive | inactive | blocker |  | 
8 | O=Cc1ccc(-c2ccc(CO)s2)s1 [Compound 28, 5-hydroxymethyl-5′-formyl-2,2′-bithiophene] | inactive | desenstized | inactive |  | 
9 | O=C([O-])c1ccc(-c2ccc(/C=C/c3ccc(N(CCO)CCO)cc3)s2)s1.[Na+] [Compound 29] | active | desenstized | activator | partially desenstized | 
10 | O=Cc1ccc(-c2cccs2)s1 [Compound 30, 2,2′-bithiophene-5-carboxaldehyde] | inactive | desenstized | blocker |  | 
11 | O=C(O)c1cc(-c2ccc(F)cc2F)ccc1O [Diflunisal] | active | desenstized | activator |  | active
12 | O=C(O)c1ccccc1Nc1cccc(C(F)(F)F)c1 [Flufenamic acid] | active | desenstized | activator | desenstized | active
13 | Cc1c(Nc2ncccc2C(=O)O)cccc1C(F)(F)F [Flunixin] | active | desenstized | activator |  | active
14 | O=C(O)c1cc(=O)c2ccccc2[nH]1 [Kynurenic acid] | inactive | desenstized | inactive |  | 
15 | Cc1ccc(Cl)c(Nc2ccccc2C(=O)O)c1Cl [Meclofenamate] | inactive | desenstized |  | partially desenstized | 
16 | O=C(O)c1cc([N+](=O)[O-])ccc1NCCCc1ccccc1 [NPPB] | active | desenstized | activator |  | active
17 | O=C(O)c1cccnc1Nc1cccc(C(F)(F)F)c1 [Niflumic acid] | active | desenstized | activator |  | active
18 | O=C(O)c1cc(/N=N/c2ccc(S(=O)(=O)Nc3ccccn3)cc2)ccc1O [Sulfasalazine] | inactive | desenstized | inactive |  | 
19 | CC1=C(CC(=O)O)c2cc(F)ccc2/C1=C\c1ccc([S+](C)[O-])cc1 (centres unmarked) [Sulindac] | inactive | desenstized | blocker |  | 
20 | O=C1OC(OC(=O)c2cccnc2Nc2cccc(C(F)(F)F)c2)c2ccccc21 (centres unmarked) [Talniflumate] | inactive | desenstized | inactive |  | 
21 | Cc1c(Cl)cccc1Nc1ccccc1C(=O)O [Tolfenamic acid] | active | desenstized | blocker |  | active
22 | N#C/C(=C\c1ccc(O)c(O)c1)C(N)=O [Tyrphostin 46] |  | desenstized | inactive | inactive | 
23 | N#C/C(=C\c1ccc(O)c(O)c1)C(N)=S [Tyrphostin 47] |  | desenstized | activator | partially desenstized | 
24 | N#CC(C#N)=C(N)/C(C#N)=C/c1cc(O)c(O)c(O)c1 [Tyrphostin 51] |  | desenstized | inactive | partially desenstized | 
